Earlier results on 1 compound are cited in patent US8980870B2, “Solid telmisartan pharmaceutical formulations” (Boehringer Ingelheim International GmbH, priority 2002, dated 2015).

For the data set the following is noted: physiological pH range of the gastrointestinal tract, between pH 1 to 7; both polymorphic forms A and B.

As to `CCCc1nc2c(C)cc(-c3nc4ccccc4n3C)cc2n1Cc1ccc(-c2ccccc2C(=O)O)cc1` [telmisartan, 4′-[2-n-propyl-4-methyl-6-(1-methylbenzimidazol-2-yl)benzimidazol-1-ylmethyl]biphenyl-2-carboxylic acid], the “solubility in aqueous systems” value is reported as “very poor solubility”.
